Laboratory results from patent publication US6583106B2, “Monohydric alcohol derived urethanes and their use in cosmetic formulations” (Alzo International, Inc., priority 1997, dated 2003).

Test: Mono- and diester stability study (acid value after heat/reflux and pH variation)
Type: physicochemical
Conditions: before treatment; A.O.C.S. T.M. #Cd 3a-63
Method: (§1) The following stability study was conducted to determine the structural stability of dimeric urethane compounds according to the present invention compared to mono- and diesters under conditions of pH and thermal variation. Because the decomposition products of the mono- and diesters are alcohol and acid, the degree of decomposition may be accurately determined by measuring the acid value. The measurable decomposition product of the urethane compound is alcohol, which is accurately measured by determining the hydroxyl value.
III. Procedure for Determining Mono- or Diester Stability
The following steps were performed on each ester sample:
(2) Into three ground glass Erlenmeyer flasks, weigh a 20 g sample of the ester.
(3) Into each flask, pipette 50 ml of a neutralized (to phenolpthalein end point) Solution of 70% Isopropanol in water. Boiling stones are added.
(4) Connect flask A to a 4-5 ft. Reflux condenser and heat so that it refluxes 1 ft. High (to approximately 80-90° C.). After connecting flasks A, B and C, proceed to step (7).
(5) Add 10% Aq. Hcl solution to adjust pH of solution in flask B to pH=2.5-3.5. See step (4).
(6) Add 20% Aq. KOH Solution to adjust pH of solution in Flask C to pH=13-14. See step (4).
(8) For each flash, A, B and C, disconnect condenser. Pour Alcoholic solution into wide diameter beaker (A, B and C). Add spin bar. […]

Compared with `CC(C)OC(=O)CCCCC(=O)OC(C)C` [DIA, Diisopropyl adipate], Diisopropyl dilinoleate [DID] is higher in “ACID V INITIAL” value: 0.26 mg KOH/g for the first, 0.32 mg KOH/g for the second.

Test: Urethane stability study (hydroxyl value after heat/reflux and pH variation)
Type: physicochemical
Conditions: before treatment; A.O.C.S. hydroxyl value method
Method: as §1
IV. Procedure for Urethane Stability
The following steps were performed on each urethane sample:
(1) Run hydroxyl value test.
(2) Follow steps 2-8 for mono- and diester (above).
(3) Run hydroxyl value test on solution in beaker A.
(4) Perform step 10, from above.
(5) Run hydroxyl value test on solution in Beaker B and Beaker C.
Under conditions of this study, that is,
“A”: Product in alcoholic/water solution, heat
“B”: Product in alcoholic/water solution, heat, pH=2.5-3.5
“C”: Product in alcoholic/water solution, heat, pH=13-14

First: CCCCC(CC)COC(=O)NCC1(C)CC(NC(=O)OCC(CC)CCCC)CC(C)(C)C1 (stereo not drawn) [Monoderm I-8, 2-ethyl hexanol dimer with IPDI]
Second: Isocetyl alcohol dimer with IPDI [Monoderm I-16]
The “HYDROXYL V INITIAL” value of the first is higher: 10.3 mg KOH/g for the first, 7.3 mg KOH/g for the second.

Compared with “Isostearyl alcohol dimer with IPDI [Monoderm I-18]”, “Octyl dodecanol dimer with IPDI [Monoderm I-20]” is higher in “HYDROXYL V INITIAL” value: 5.3 mg KOH/g for the first, 16.1 mg KOH/g for the second.
